The experiment addresses BTK (Homo sapiens, UniProt Q06187). Kind of experiment: biochemical.
[1] abbreviates: read-out: BTK inhibition (%), 0.75 uM BTK, […] probe 3l, 15 min preincubation.

SMILES strings stand for the structures. Where two headings read alike, the source gives them in different places.

Usually inhibition stands for the drop in the measured response relative to a control, in per cent.

Chain of BTK (Q06187 402-655 limits assumed): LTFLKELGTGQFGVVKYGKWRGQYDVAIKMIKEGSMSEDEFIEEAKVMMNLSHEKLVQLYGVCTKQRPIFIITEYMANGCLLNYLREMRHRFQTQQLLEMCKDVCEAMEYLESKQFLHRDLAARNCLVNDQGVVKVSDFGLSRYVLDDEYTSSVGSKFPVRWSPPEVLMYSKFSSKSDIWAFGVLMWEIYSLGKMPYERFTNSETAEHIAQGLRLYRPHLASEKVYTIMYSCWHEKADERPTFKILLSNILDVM

As to `O=C(NCCN1CCOCC1)c1ccc(Cl)cc1` [PCM-0064796], the inhibition at 10 µM under setting [1] is -3.9%. For the compound `Cc1ccc(=O)n(-c2ccccc2)c1` [PCM-0064803], the inhibition at 10 µM under setting [1] was determined as 20.7%. The same measure, in the same setting: the result for `O=C(C1CCCCC1)N1CC(=O)N2CCc3ccccc3C2C1` (stereo not drawn) [PCM-0064807] reads -5.4%; that for `O=C1CCC(N2C(=O)c3ccccc3C2=O)C(=O)N1` (stereo not drawn) [PCM-0064817], 5.5%.

On to `Cc1cc2c(s1)Nc1ccccc1N=C2N1CCN(C)CC1` [PCM-0064824], for which the inhibition at 10 µM under setting [1] is -8.6%. Still for that read-out and setting: the result for `COc1ccccc1N1CCN(CCN(C(=O)C2CCCCC2)c2ccccn2)CC1` [PCM-0064827] reads -6.2%. Still for that read-out and setting: the result for `CC[C@@H](C(N)=O)N1CCCC1=O` [PCM-0064838] reads 15.6%; that for `CCCNCC(O)COc1ccccc1C(=O)CCc1ccccc1` (stereo not drawn) [PCM-0064846], 2.3%. On the same count and under the same terms, then `CNC[C@H](O)c1cccc(O)c1` [PCM-0064848], with -20.2%.

`CN1CCN(CCCN2c3ccccc3Sc3ccc(C(F)(F)F)cc32)CC1` [PCM-0064852]: the inhibition at 10 µM under setting [1] is -4.7%.

As to `CCCCNC(=O)NS(=O)(=O)c1ccc(C)cc1` [PCM-0064855], the inhibition at 10 µM under setting [1] was -11.7%. Same read-out and setting: then `O=c1n(CCCN2CCN(c3cccc(Cl)c3)CC2)nc2ccccn12` [PCM-0064865], with -0.9%; and `N#CC(C#N)=Cc1ccc(O)c(O)c1` [PCM-0064867], with 54.5%; and `CC(C)N(CCC(=O)c1ccc2ccccc2c1)Cc1ccccc1` [PCM-0064875], with 29%. Still for that read-out and setting: the result for `O=C(O)c1cccnc1Nc1cccc(C(F)(F)F)c1` [PCM-0064877] reads 24.1%; that for `N=C(N)c1ccc(OCCCCCOc2ccc(C(=N)N)cc2)cc1` [PCM-0064878], -4.7%; that for `O=C(Nc1ccncc1)c1cc([N+](=O)[O-])ccc1Cl` [PCM-0064887], 10.9%. The same measure, in the same setting: the result for `C=CCc1cccc(/C=N/NC(=O)CN2CCN(Cc3ccccc3)CC2)c1O` [PCM-0064890] reads 9%. For the compound `CCN(CC)C(=S)SSC(=S)N(CC)CC` [PCM-0064895], under setting [1], the inhibition at 10 µM was -5.5%. Turning to `Cc1cccc(C)c1NC1=NCCCS1` [PCM-0064906], the inhibition at 10 µM (read-out: BTK inhibition (%)) is -21.8%.

Consider `NCC(O)c1ccc(O)cc1` (stereo not drawn) [PCM-0064912], for which the inhibition at 10 µM under setting [1] amounted to 2.3%. Still for that read-out and setting: then `Cn1cc(C2=C(c3ccc(Cl)cc3Cl)C(=O)NC2=O)c2ccccc21` [PCM-0064915], with 3.4%. Same read-out and setting: then `CS(=O)(=O)Nc1ccc([N+](=O)[O-])cc1Oc1ccccc1` [PCM-0064916], with 3.4%; and `CN1[C@@H]2CCC[C@H]1CC(NC(=O)c1nn(C)c3ccccc13)C2` (stereo partly drawn) [PCM-0064932], with 10.2%; and `CC(C)(C)c1cc(C=C(C#N)C#N)cc(C(C)(C)C)c1O` [PCM-0064935], with 15.2%. As for `CCOC(=O)C1=C[C@]2(CC)CCCN3CCc4c(n1c1ccccc41)[C@@H]32` [PCM-0064941], the inhibition at 10 µM under setting [1] was -14.5%. Same read-out and setting: the result for `C[C@]12C=CC(=O)C=C1CC[C@H]1[C@@H]3C[C@@H](O)[C@](O)(C(=O)CO)[C@@]3(C)C[C@H](O)[C@@]12F` [PCM-0064944] reads 2.1%; that for `CC12CC3CC(C)(C1)CC(N)(C3)C2` [PCM-0064948], 7.8%; that for `CS(=O)(=O)c1cccc(CNc2nc(Nc3ccc4c(c3)CCC(=O)N4)ncc2C(F)(F)F)c1` [PCM-0064954], 55.2%. The same measure, in the same setting: then `NC(=O)CN1CCCC1=O` [PCM-0064964], with -16.3%; and `CN[C@H]1CC[C@@H](c2ccc(Cl)c(Cl)c2)c2ccccc21` [PCM-0064965], with -19.5%. For `COc1ccccc1N1CCN(CCCNc2cc(=O)n(C)c(=O)n2C)CC1` [PCM-0064976], under setting [1], the inhibition at 10 µM was -0.8%. Still for that read-out and setting: then `CN[C@H](CC(C)C)C(=O)N[C@H]1C(=O)N[C@@H](CC(N)=O)C(=O)N[C@H]2C(=O)N[C@H]3C(=O)N[C@H](C(=O)N[C@H](C(=O)O)c4cc(O)cc(O)c4-c4cc3ccc4O)[C@H](O)c3ccc(c(Cl)c3)Oc3cc2cc(c3O[C@@H]2O[C@H](CO)[C@@H](O)[C@H](O)[C@H]2O[C@H]2C[C@](C)(N)[C@H](O)[C@H](C)O2)Oc2ccc(cc2Cl)[C@H]1O` [PCM-0064980], with 4.3%.

Consider `CC(C)(C)NC[C@H](O)COc1nsnc1N1CCOCC1` [PCM-0064983], for which, under setting [1], the inhibition at 10 µM was -3.9%. The same measure, in the same setting: the result for `Cc1cc(C(C)(C)C)cc(C)c1CC1=NCCN1` [PCM-0064984] reads -0.8%; that for `CC(C)NCC(O)COc1ccc(COCCOC(C)C)cc1` (stereo not drawn) [PCM-0064988], -31.9%.

Turning to `C[C@]12N[C@H](Cc3ccccc31)c1ccccc12` [PCM-0064989], the inhibition at 10 µM (read-out: BTK inhibition (%)) stood at 3.9%.

Turning to `O=C(c1ccc(F)cc1)C1CCN(CCn2c(=O)[nH]c3ccccc3c2=O)CC1` [PCM-0065006], the inhibition at 10 µM under setting [1] was 0%.

Consider `COc1cc(Cc2cnc(N)nc2N)cc(OC)c1OC` [PCM-0065007], for which the inhibition at 10 µM under setting [1] is -7.8%. The same measure, in the same setting: the result for `Oc1ccc2ccccc2c1SSc1c(O)ccc2ccccc12` [PCM-0065009] reads 17.2%; that for `COc1ccc(/C=C/C(=O)Nc2ccccc2C(=O)O)cc1OC` [PCM-0065010], 13.8%; that for `Nc1nc(N)c2nc(-c3ccccc3)c(N)nc2n1` [PCM-0065015], -4.7%. Turning to `CCc1cncnc1N1CCN(Cc2nc3ccc(C(F)(F)F)cc3[nH]2)CC1` [PCM-0065022], the inhibition at 10 µM under setting [1] was -22.8%. On the same count and under the same terms, then `CC(C)N(CCC(C(N)=O)(c1ccccc1)c1ccccn1)C(C)C` (stereo not drawn) [PCM-0065027], with 5.4%; and `CCN(CC)CCOCCOC(=O)C1(c2ccccc2)CCCC1` [PCM-0065027], with 4.7%. The same measure, in the same setting: the result for `Cc1ccc(-c2cc(C(F)(F)F)nn2-c2ccc(S(N)(=O)=O)cc2)cc1` [PCM-0065035] reads 22.8%; that for `COc1ccc([C@@H]2Sc3ccccc3N(CCN(C)C)C(=O)[C@@H]2OC(C)=O)cc1` [PCM-0065036], 17.1%.

In the case of `O=c1ccc2ccc(O)c(O)c2o1` [PCM-0065041], under setting [1], the inhibition at 10 µM was found to be 15.9%. On the same count and under the same terms, the result for `Cc1nc2n(c(=O)c1CCN1CCC(c3noc4cc(F)ccc34)CC1)CCCC2O` (stereo not drawn) [PCM-0065046] reads 6%; that for `CC(C)OC(=O)C(C)(C)Oc1ccc(C(=O)c2ccc(Cl)cc2)cc1` [PCM-0065053], 8.6%. Same read-out and setting: the result for `CC(C)(C(=O)O)c1ccc(C(O)CCCN2CCC(C(O)(c3ccccc3)c3ccccc3)CC2)cc1` (stereo not drawn) [PCM-0065056] reads -10.3%. Same read-out and setting: then `O=c1c(-c2ccc(O)cc2)coc2cc(O)ccc12` [PCM-0065064], with -7.8%. With `Cc1cn([C@H]2C=C[C@@H](CO)O2)c(=O)[nH]c1=O` [PCM-0065071], the inhibition at 10 µM under setting [1] is 2.3%. The same measure, in the same setting: then `O=C(c1ccc(OCCCc2cnc[nH]2)cc1)C1CC1` [PCM-0065087], with -14.5%; and `COCCCC/C(=N\OCCN)c1ccc(C(F)(F)F)cc1` [PCM-0065088], with -8.6%; and `COCCOC(=O)C1=C(C)NC(C)=C(C(=O)OC/C=C/c2ccccc2)C1c1cccc([N+](=O)[O-])c1` (stereo not drawn) [PCM-0065102], with 59.9%.

Take `COc1ccccc1OCCNCC(O)COc1cccc2[nH]c3ccccc3c12` (stereo not drawn) [PCM-0065111]: the inhibition at 10 µM under setting [1] is -7.8%.

The record behind these values is paper PMC8041284, “Tunable Methacrylamides for Covalent Ligand Directed Release Chemistry” (Journal of the American Chemical Society, 2021).
